Patent publication US10815237B2, “Antimicrobials and methods of making and using same” (BIOVERSYS AG, priority 2016, dated 2020)

Experiments:
[1] = system: Chinese hamster ovary (CHO) cells; assay: cytotoxicity against CHO cell line (Cell Titer Blue); assay type: cell-based; conditions: Cricetulus griseus, 24 h, CHO-K1 cells, 24 hours incubation, percent cell kill
Procedure: The compounds of the present disclosure were tested for cytotoxicity against Chinese hamster ovary (CHO) cells.
The assay was performed by seeding CHO—K1 in F12K medium containing 13.33% Fetal Bovine Serum […]. 37.5 μl of cell suspension at a concentration of 9,500 cells/well was plated into each column of a 384-well black clear bottom assay plate with the exception of a negative (no cell) control column, and allowed to adhere for 2 hours. The culture media was then removed from the 175 cm^2 flask(s) and the cell monolayer washed with 10 mL of Phosphate Buffered Saline PBS. 3 mL of Cellstripper™ was then added and the flask was incubated for approximately 5 min at 37° C. The cells were dissociated by agitation and 7 mL of F 12K medium containing 10% FBS was added to the flask. A homogeneous cell suspension was obtained by trituration of the flask. The cells were counted with a hemocytometer by diluting an aliquot of the cell suspension in PBS with 0.4% trypan blue. Typically, a ratio of 100 μl cell suspension to 1800 μl PBS to 100 μl trypan blue was used.
The volume of cell suspension containing the number of cells needed to seed the plate(s) (15.2 mL containing 3.8×10^6 cells) was calculated and transferred to a 50 mL centrifuge tube with the appropriate volume of media. 37.5 μl of cells were added to each well of the 384 well plate except for the negative (no cell) control column. A cytotoxicity 100-fold dilution plate was then prepared by manually pipetting 18 μl of 100% DMSO into two columns of an empty low volume dilution plate. 2 μl of a 50 mM solution of compounds 1-23 from the translation plate were manually pipetted into the corresponding columns of the 100-fold dilution plate. 10 μl of 100% DMSO was manually pipetted into all remaining columns of the 100-fold plate.
A 4-fold cytotoxicity plate was prepared beforehand by manually pipetting 48 μl of F12K media (without DMSO and without FBS) into each well of a matrix 384 well plate. The test samples in the 100-fold dilution plate were mixed and diluted. Ten 2-fold dilutions were performed for each compound in duplicate. The 384 cannula array then transferred 2 μl to the 48 μl of media in the cytotoxicity 4-fold dilution plate. The array was then mixed and 12.5 μl of samples from the cytotoxicity 4-fold dilution plate were transferred to the 37.5 μl of cells and media. The final top concentration of samples at this point in the procedure was 50 μM with 10 subsequent 1:2 dilutions down to […]. The final DMSO concentration were 1% and the final concentration of FBS was 10%.
Cycloheximide was run as a control. Specifically, Cycloheximide was diluted to 0.1 mM from 100 mM stock […] and was added to the cytotoxicity 100-fold plate. Upon addition to the cell plate, a range of 1 μM to 1 nM of cycloheximide was run.
A column separate from the one (referred to above) that served as the negative control was used for cell control wells to which only media was added.
The plates were then incubated for 24 hours at 37° C. and 5% CO2. […] The two columns used earlier to prepare the 100-fold dilution plate by pipetting 18 μl of 100% DMSO contained the samples tested at 200 μM. After the 24 hour incubation period, the 4 μl of Cell Titer blue was added to each well using a Multichannel Matrix pipettor. The plates were returned to the incubator and incubated for an additional 5 hours. Fluorescence (530 nm excitation wavelength/590 nm emission wavelength) was measured on a Wallac Victor microplate reader.
Cell viability was assessed fluorometrically after a 5 hour incubation with resazurin (Cell Titer Blue™), which is reduced by living cells to the fluorescent resorufin.
The average fluorescence for the negative control was determined to obtain the average blank fluorescence. The average blank fluorescence was subtracted from the fluorescence values obtained for all the test agents. The resulting values are the corrected fluorescence. […]

[2] = system: Eschericia coli (E. coli) strain ATCC25922; assay: standard microdilution MIC, E. coli; assay type: cell-based, Escherichia coli; conditions: Escherichia coli
Procedure: (§1) The in vitro activity of the compounds of the present disclosure can be determined. Antimicrobial testing is typically performed to determine the minimum inhibitory concentration (MIC). Minimum inhibitory concentrations (MICs) are determined by the microdilution method in a final volume of 100 μl according to protocols outlined by The Clinical and Laboratory Standards Institute (CLSI). Performance standards for reference strains are assessed within the same experimental design to maintain quality control. See, for example, Clinical Laboratory Standards Institute: Methods for dilution antimicrobial susceptibility tests for bacteria that grow aerobically M7-A8. Approved Standard-Eighth Edition. Wayne, Pa.: CLSI; December 2008; and Clinical Laboratory Standards Institute: Performance Standards for Antimicrobial Susceptibility Testing M100-S20; Approved Standard-Twentieth Edition. Wayne, Pa.: CLSI; June 2010.
(§2) The compounds of the present disclosure were tested for antimicrobial activity. The Compounds 1-23 were run against Eschericia coli (E. coli) strain ATCC25922 and against Staphylococcus aureus (S. aureus) 11540 strain using a standard microdilution assay to determine minimum inhibitory concentrations (MICs). […] It will be recognized by one skilled in the art that the compounds can be assessed against other bacterial organisms and that the presentation of data for activity against Eschericia coli and Staphylococcus aureus are illustrative and in no way is intended to limit the scope of the present disclosure. The compounds of the present disclosure can be assayed against a range of other microorganisms depending upon the performance activity desired to be gathered. Furthermore, the “+” and “−” representation and the selection of a cutoff value of 16 micrograms/mL is also illustrative and in no way is intended to limit the scope of the present disclosure.

[3] = system: Staphylococcus aureus (S. aureus) 11540 strain; assay: standard microdilution MIC, S. aureus; assay type: cell-based; conditions: Staphylococcus aureus
Procedure: as §1, §2

[4] = system: E. coli DH10B recipient; assay: CLSI broth microdilution MIC, E. coli DH10B recipient; assay type: cell-based
Procedure: (§3) Four compounds, including Compound No. 8 of the present application (RX-04D) were tested against (i) multiresistant Enterobacteriaceae and Acinetobacter with carbapenemases; (ii) Enterobacteriaceae with MCR-1; and (iii) P. aeruginosa with altered efflux (see Tables 4 and 5). In this case, MCR-1 is relevant because its activity reduces the negative charge of lipopolysaccharides, potentially affecting binding of poly-basic molecules such as the compounds tested herein, as well as polymyxins.
(§4) MICs of the four tested compounds and comparators (amikacin, cefepime, colistin, meropenem and tigecyline) were determined by CLSI broth microdilution using pre-prepared plates (Trek Diagnostic Systems) (CLSI Approved Standard M7-A10). Carbapenemase and mcr-1 genes were detected by PCR or sequencing. Efflux levels in P. aeruginosa isolates were inferred by interpretive reading of antibiogram data.

[5] = system: E. coli DH10B mcr-1 transformant; assay: CLSI broth microdilution MIC, E. coli DH10B mcr-1 transformant; assay type: cell-based; conditions: E. coli DH10B MCR-1 Transformant
Procedure: as §3, §4

| Compound | IC50 [1] | MIC [2] | MIC [3] | MIC [4] | MIC [5] |
| --- | --- | --- | --- | --- | --- |
| CSc1cc(-n2cc3cc(-c4cc(CCC[C@@H](N)C5CC5)cc(Cl)c4F)[nH]c3nc2=O)ccc1[C@@H]1CCC[C@@H](CCNC(=N)CN)N1CCCF [Compound 48] | 13.5 µM | ≤ 16 µg/mL | ≤ 16 µg/mL |  |  |
| CSc1cc(-n2cc3cc(-c4cc(CCC[C@H](C)N)cc(Cl)c4F)[nH]c3nc2=O)ccc1[C@@H]1CCC[C@@H](CCNC(=N)CN)N1CCCF [Compound 49] | 21.1 µM | ≤ 16 µg/mL | ≤ 16 µg/mL |  |  |
| CSc1cc(-n2cc3cc(-c4cc(CCC[C@H](C)N)cc(Cl)c4F)[nH]c3nc2=O)cc(F)c1[C@@H]1CCC[C@@H](CCNC(=N)CN)N1CCCF [Compound 50] | 10.1 µM | ≤ 16 µg/mL | ≤ 16 µg/mL |  |  |
| CSc1cc(-n2cc3cc(-c4cc(CCC[C@H](C)N)cc(C(F)(F)F)c4)[nH]c3nc2=O)cc(F)c1[C@@H]1CCC[C@@H](CCNC(=N)CN)N1CCCF [Compound 51] | > 100 µM | > 16 µg/mL | ≤ 16 µg/mL |  |  |
| CSc1cc(-n2cc3cc(-c4cc(CCC[C@@H](N)C5CC5)cc(Cl)c4F)[nH]c3nc2=O)cc(F)c1[C@@H]1CCC[C@@H](CCNC(=N)CN)N1CCCF [Compound 52] | 15.9 µM | ≤ 16 µg/mL | ≤ 16 µg/mL |  |  |
| CSc1cc(-n2cc3cc(-c4cc(CCC[C@@H](N)C5CC5)cc(C(F)(F)F)c4)[nH]c3nc2=O)ccc1[C@@H]1CCC[C@@H](CCNC(=N)CN)N1CCCF [Compound 53] | > 100 µM | ≤ 16 µg/mL | ≤ 16 µg/mL |  |  |
| CSc1cc(-n2cc3cc(-c4cc(CCC[C@@H](N)C5CC5)cc(C(F)(F)F)c4)[nH]c3nc2=O)cc(F)c1[C@@H]1CCC[C@@H](CCNC(=N)CN)N1CCCF [Compound 54] | > 100 µM | > 16 µg/mL | ≤ 16 µg/mL |  |  |
| C=C[C@H](N)CCCc1cc(-c2cc3cn(-c4ccc([C@@H]5CCC[C@@H](CCNC(=N)CN)N5CCCF)c(SC)c4)c(=O)nc3[nH]2)cc(C(F)(F)F)c1 [Compound 55] | > 100 µM | ≤ 16 µg/mL | ≤ 16 µg/mL |  |  |
| C=C[C@H](N)CCCc1cc(-c2cc3cn(-c4ccc([C@@H]5CCC[C@@H](CCNC(=N)CN)N5CCCF)cc4)c(=O)nc3[nH]2)cc(C(F)(F)F)c1 [Compound 56] | > 100 µM | ≤ 16 µg/mL | ≤ 16 µg/mL |  |  |
| C[C@H](N)CCCc1cc(Cl)c(F)c(-c2cc3cn(-c4ccc([C@@H]5CCC[C@@H](CCNC(=N)[C@@H](N)CO)N5)cc4)c(=O)nc3[nH]2)c1 [Compound 57] | > 100 µM | ≤ 16 µg/mL | ≤ 16 µg/mL |  |  |
| C[C@H](N)CCCc1cc(Cl)c(F)c(-c2cc3cn(-c4ccc([C@@H]5CCC[C@@H](CCNC(=N)[C@H](N)CO)N5)cc4)c(=O)nc3[nH]2)c1 [Compound 58] | > 100 µM | ≤ 16 µg/mL | ≤ 16 µg/mL |  |  |
| C[C@H](N)CCCc1cc(Cl)c(F)c(-c2cc3cn(-c4ccc([C@@H]5CCC[C@@H](CCNC(=N)[C@@H](C)N)N5)cc4)c(=O)nc3[nH]2)c1 [Compound 59] | > 100 µM | ≤ 16 µg/mL | ≤ 16 µg/mL |  |  |
| C[C@H](N)CCCc1cc(Cl)c(F)c(-c2cc3cn(-c4ccc([C@@H]5CCC[C@@H](CCNC(=N)[C@H](C)N)N5)cc4)c(=O)nc3[nH]2)c1 [Compound 60] | > 100 µM | ≤ 16 µg/mL | ≤ 16 µg/mL |  |  |
| C=C[C@H](N)CCCc1cc(Cl)c(F)c(-c2cc3cn(-c4ccc([C@@H]5CCC[C@@H](CCNC(=N)CN)N5CCCF)c(SC)c4)c(=O)nc3[nH]2)c1 [Compound 61] | 13.6 µM | ≤ 16 µg/mL | ≤ 16 µg/mL |  |  |
| C=C[C@H](N)CCCc1cc(-c2cc3cn(-c4cc(F)c([C@@H]5CCC[C@@H](CCNC(=N)CN)N5CCCF)c(SC)c4)c(=O)nc3[nH]2)cc(C(F)(F)F)c1 [Compound 62] | > 100 µM | > 16 µg/mL | ≤ 16 µg/mL |  |  |
| C=C[C@H](N)CCCc1cc(-c2cc3cn(-c4ccc([C@@H]5CCC[C@@H](CCNC(=N)CN)N5CCCF)c(F)c4)c(=O)nc3[nH]2)cc(C(F)(F)F)c1 [Compound 63] | > 100 µM | ≤ 16 µg/mL | ≤ 16 µg/mL |  |  |
| C=C[C@H](N)CCCc1cc(Cl)c(F)c(-c2cc3cn(-c4ccc([C@@H]5CCC[C@@H](CCNC(=N)CN)N5CCCF)cc4)c(=O)nc3[nH]2)c1 [Compound 64] | > 100 µM | ≤ 16 µg/mL | ≤ 16 µg/mL |  |  |
| C=C[C@H](N)CCCc1cc(Cl)c(F)c(-c2cc3cn(-c4cc(F)c([C@@H]5CCC[C@@H](CCNC(=N)CN)N5CCCF)c(SC)c4)c(=O)nc3[nH]2)c1 [Compound 65] | 5.2 µM | ≤ 16 µg/mL | ≤ 16 µg/mL |  |  |
| C=C[C@H](N)CCCc1cc(Cl)c(F)c(-c2cc3cn(-c4ccc([C@@H]5CCC[C@@H](CCNC(=N)CN)N5CCCF)c(F)c4)c(=O)nc3[nH]2)c1 [Compound 66] | 37.3 µM | ≤ 16 µg/mL | ≤ 16 µg/mL |  |  |
| CNCC(=N)NCC[C@@H]1CCC[C@@H](c2ccc(-n3cc4cc(-c5cc(CCC[C@H](C)N)cc(Cl)c5F)[nH]c4nc3=O)cc2)N1 [Compound 67] | > 100 µM | ≤ 16 µg/mL | ≤ 16 µg/mL |  |  |
| C[C@H](N)CCCc1cc(Cl)c(F)c(-c2cc3cn(-c4ccc([C@@H]5CCC[C@@H](CNC(=N)CN)N5)cc4)c(=O)nc3[nH]2)c1 [Compound 68] | 85.3 µM | ≤ 16 µg/mL | ≤ 16 µg/mL |  |  |
| Cc1c2cc(-c3cc(CCC[C@H](C)N)cc(Cl)c3F)[nH]c2nc(=O)n1-c1ccc([C@@H]2CCC[C@@H](CCNC(=N)CN)N2)cc1 [Compound 69] | > 100 µM | ≤ 16 µg/mL | ≤ 16 µg/mL |  |  |
| colistin [reference compound] |  |  |  | 0.25 µg/mL | 4 µg/mL |
